Molecules are shown by their SMILES.

Among the data in ChEMBL document CHEMBL5620384, “6-Regioisomeric 5,8-quinolinediones as potent CDC25 inhibitors against colorectal cancers” (Eur J Med Chem, 2023) are viability and IC50 values, retold here.

Assay [1] has as its system DLD-1. Description: Cytotoxicity against human DLD-1 cells assessed as cell survival measured at 2 uM after 72 hrs by MTS assay relative to control. Type of assay: functional. The conditions noted are these: read-out: Activity. On the technique in general: Tetrazolium assays rely on reduction of a dye to a coloured formazan, in cell work by metabolically active cells.

A further assay concerns HCT-116. Description: Cytotoxicity against human HCT-116 cells assessed as cell survival measured at 2 uM after 72 hrs by MTS assay relative to control. Type of assay: functional. The conditions noted are these: read-out: Activity.
Another assay concerns SW480. Description: Cytotoxicity against human SW480 cells assessed as cell survival measured at 2 uM after 72 hrs by MTS assay relative to control. The class given is functional. The conditions noted are these: read-out: Activity.
A further assay deals with MCF7. Description: Cytotoxicity against human MCF7 cells assessed as cell survival measured at 2 uM after 72 hrs by MTS assay relative to control. Conditions: read-out: Activity. Type of assay: functional.
The test system of a further assay is U-87 MG. Description: Cytotoxicity against human U-87 MG cells assessed as cell survival measured at 2 uM after 72 hrs by MTS assay relative to control. The class given is functional, U-87MG ATCC. The conditions noted are these: read-out: Activity.
In assay [2] the test system is MDA-MB-231. Description: Cytotoxicity against human MDA-MB-231 cells assessed as cell survival measured at 2 uM after 72 hrs by MTS assay relative to control. Type of assay: functional. The conditions noted are these: read-out: Activity.
In assay [3] the test system is DLD-1. Description: Cytotoxicity against human DLD1 cells assessed as growth inhibition after 72 hrs by MTS assay. Type of assay: functional, cell-based. The conditions noted are these: DLD-1, 72 h.
Assay [4] concerns MDA-MB-231. Description: Cytotoxicity against human MDA-MB-231 cells assessed as growth inhibition after 72 hrs by MTS assay. Type of assay: functional, cell-based. Conditions: MDA-MB-231, 72 h.

Take `Nc1cccc2c1C(=O)C(Cl)=C(NCCN1CCOCC1)C2=O`: the viability at 2 µM came out at 91.3% with DLD-1 [1]; 98% with HCT-116; 96% in the assay on SW480; 98.9% in the assay with MCF7; 95.9% in the assay on U-87 MG; 98% in the assay on MDA-MB-231 [2].

As to `O=C1C(Cl)=C(NCCCCN2CCOCC2)C(=O)c2ncccc21`, the viability at 2 µM in the assay with DLD-1 [1] was determined as 77.3%; in the assay on HCT-116, 53.9%; in the assay on U-87 MG it was 81.5%; in the assay on MDA-MB-231 [2] it was 88.6%.

A word on the IC50: it is the concentration that gives 50% inhibition. With `O=C1C(NCCCCN2CCOCC2)=C(Cl)C(=O)c2ncccc21`, the viability at 2 µM in the assay with DLD-1 [1] was 42.2%; in the assay on HCT-116 it was 4.18%; with MCF7, 92.8%; in the assay on U-87 MG it was 105%; in the assay on MDA-MB-231 [2] it was 81.8%. Further, the results for the IC50 in the assay on DLD-1 [3] and in the assay with MDA-MB-231 [4] were 1700 nM and 680 nM, respectively.

`O=C1C(Cl)=C(NCCN2CCOCC2)C(=O)c2cc(Br)ccc21`: the viability at 2 µM with DLD-1 [1] was 10.3%; in the assay on HCT-116, 86.8%; in the assay with SW480, 99.7%; in the assay with MCF7, 105%; in the assay with U-87 MG it was 86.8%; with MDA-MB-231 [2], 80.3%.

Turning to `O=C1C(Cl)=C(NCCN2CCOCC2)C(=O)c2c1cccc2[N+](=O)[O-]`, the viability at 2 µM in the assay with DLD-1 [1] turned out to be 93.2%; in the assay with HCT-116 it was 100%; in the assay on SW480 it was 97.8%; in the assay with MCF7, 109%; in the assay with U-87 MG, 105%; in the assay with MDA-MB-231 [2], 98.2%.

With `O=C1C(Cl)=C(NCCN2CCOCC2)C(=O)c2ccc(I)cc21`, the viability at 2 µM in the assay with DLD-1 [1] was 82.1%; with HCT-116 it was 94.4%; in the assay with SW480 it was 111%; in the assay with MCF7, 104%; with U-87 MG it was 104%; with MDA-MB-231 [2], 91%.

For `O=C1C(NCCN2CCOCC2)=C(Cl)C(=O)c2c1cccc2[N+](=O)[O-]`, the viability at 2 µM in the assay with DLD-1 [1] amounted to 59.9%; with HCT-116 it was 86.3%; with SW480 it was 89.3%; in the assay on MCF7, 88.9%; in the assay with U-87 MG, 84.6%; with MDA-MB-231 [2], 99.3%.

Turning to `O=C1C(Cl)=C(NCCN2CCOCC2)C(=O)c2ccccc21`, the viability at 2 µM turned out to be 97.6% with DLD-1 [1]; 90.1% in the assay with HCT-116; 100% in the assay with SW480; 103% with MCF7; 99% in the assay on U-87 MG; 89.8% in the assay with MDA-MB-231 [2].

With `O=C1C(Cl)=C(NCCN2CCOCC2)C(=O)c2cc(Cl)ccc21`, the viability at 2 µM in the assay on DLD-1 [1] turned out to be 39.3%; with HCT-116 it was 86.5%; in the assay with SW480, 105%; with MCF7 it was 94%; in the assay with U-87 MG it was 98.2%; in the assay with MDA-MB-231 [2], 91.3%.

Take `O=C1C(Cl)=C(NCCN2CCOCC2)C(=O)c2cc([N+](=O)[O-])ccc21`: the viability at 2 µM in the assay on DLD-1 [1] was 54.9%; with HCT-116, 66%; with SW480 it was 76.8%; with MCF7, 90.5%; in the assay on U-87 MG it was 89.1%; in the assay with MDA-MB-231 [2], 66.8%.

`O=C1C(Cl)=C(NCCCCCN2CCOCC2)C(=O)c2ncccc21`: the viability at 2 µM came to 78.9% in the assay with DLD-1 [1]; 59.7% in the assay on HCT-116; 98.1% in the assay with SW480; 84.7% with MCF7; 79.6% in the assay on U-87 MG; 85.9% with MDA-MB-231 [2].

Consider `O=C1C(NCCCN2CCOCC2)=C(Cl)C(=O)c2ncccc21`, for which the viability at 2 µM came out at 34.1% with DLD-1 [1]; 2.43% in the assay on HCT-116; 51.6% in the assay with SW480; 70.8% in the assay with MCF7; 51.6% in the assay on U-87 MG; 90.4% in the assay with MDA-MB-231 [2]. The 50% inhibitory concentration (IC50) in the assay on DLD-1 [3] was 1940 nM; with MDA-MB-231 [4], 1140 nM.

For the compound `O=C1C(Cl)=C(NCCN2CCOCC2)C(=O)c2ccc([N+](=O)[O-])cc21`, the viability at 2 µM in the assay with DLD-1 [1] came to 97.8%; in the assay on HCT-116, 99.7%; with SW480, 94.2%; in the assay with MCF7 it was 106%; in the assay with U-87 MG it was 106%; with MDA-MB-231 [2] it was 92.9%.

In the case of `O=C1C(Cl)=C(NCCN2CCOCC2)C(=O)c2ccc(Cl)cc21`, the viability at 2 µM with DLD-1 [1] stood at 91.5%; in the assay with HCT-116 it was 93%; in the assay on SW480, 106%; in the assay with MCF7 it was 101%; in the assay on U-87 MG, 103%; in the assay on MDA-MB-231 [2], 95.9%.

Consider `O=C1C(Cl)=C(NCCN2CCOCC2)C(=O)c2cnccc21`, for which the viability at 2 µM with DLD-1 [1] came out at 75.1%; in the assay on HCT-116, 65.1%; with SW480, 100%; with MCF7, 16.4%; in the assay on U-87 MG it was 89.3%; with MDA-MB-231 [2] it was 85.2%.

In the case of `O=C1C(Cl)=C(NCCN2CCOCC2)C(=O)c2ccc(Br)cc21`, the viability at 2 µM was determined as 75.6% with DLD-1 [1]; 89.3% in the assay on HCT-116; 105% in the assay with SW480; 100% in the assay on MCF7; 91.6% in the assay on U-87 MG; 85.4% with MDA-MB-231 [2].

As to `O=C1C(NCCCCCN2CCOCC2)=C(Cl)C(=O)c2ncccc21`, the viability at 2 µM was determined as 30.5% with DLD-1 [1]; 13.7% in the assay with HCT-116; 31% with SW480; 73.9% with MCF7; 49.8% with U-87 MG; 83.4% with MDA-MB-231 [2]. Also, the concentration for half-maximal inhibition (IC50) was 1940 nM in the assay with DLD-1 [3] and 1190 nM in the assay on MDA-MB-231 [4].

For `O=C1C(Cl)=C(NCCCN2CCOCC2)C(=O)c2ncccc21`, the viability at 2 µM with DLD-1 [1] is 67.7%; with HCT-116, 56.3%; in the assay on SW480, 105%; with MCF7 it was 95.1%; with U-87 MG, 76.8%; in the assay on MDA-MB-231 [2], 87.8%.

As for `Nc1ccc2c(c1)C(=O)C(Cl)=C(NCCN1CCOCC1)C2=O`, the viability at 2 µM in the assay with DLD-1 [1] stood at 90.8%; in the assay on HCT-116, 88.7%; in the assay on MCF7, 81.4%; in the assay on U-87 MG it was 104%; in the assay on MDA-MB-231 [2], 99.7%.

Take `O=C1C(Cl)=C(NCCN2CCOCC2)C(=O)c2cc(I)ccc21`: the viability at 2 µM in the assay with DLD-1 [1] was 1.7%; in the assay on HCT-116, 82.4%; in the assay on SW480, 84.3%; in the assay with MCF7 it was 102%; in the assay on U-87 MG it was 59.3%; in the assay with MDA-MB-231 [2] it was 81.1%.
